{"source": "patent EP4282522A1", "about": "“SILICA-SUPPORTED IONIC LIQUIDS FOR THE REMOVAL OF C[…] AQUEOUS SAMPLES” (Universidade de Aveiro, priority 2022, dated 2023)", "test_system": "Danio rerio embryos", "conditions": "96 h exposure, cyclophosphamide solution 1306 mg L^-1", "key": {"[1]": {"conditions": "materials: maintenance water after 1.5 h contact with the material"}}, "description": "Aiming to identify the ability of this material to decrease and/or remove the toxicity of the water samples treated, an ecotoxicity test was carried out resorting to assays with Danio rerio embryos. […] Assays with embryos of D. rerio were performed according to the Organisation for Economic Co-operation and Development (OECD) guideline 236 on Fish Embryo Acute Toxicity (FET) Test (OECD, 2013), with small adaptations.\nZebrafish embryos were exposed for 96 h, at a temperature of 26 ± 1 °C and a 16:8h light/dark photoperiod, and observations were made at each 24 h (i.e., 24, 48, 72, and 96 hours) with the help of a stereomicroscope (Zoom-SMZ 1500, Nikon Corporation).\nIn an embodiment, besides the mortality endpoint (that included coagulated eggs, arrested development, or lack of heartbeat), the sublethal endpoints concerning the hatching rate, final body length, and malformations (such as tail and skeletal malformations, oedemas, and delayed development) (Lammer et al. 2009; \"Is the fish embryo toxicity test (FET) with the zebrafish (Danio rerio) a potential alternative for the fish acute toxicity test?\" Comp. Biochem. Physiol. Part - C: Toxicol. Pharmacol. 149 (2):196 - 209) were also evaluated. […] Mortality, hatching rate, and percentage of abnormalities were expressed considering the total number of embryos exposed to the different treatments, while the final body length endpoint was evaluated concerning the number of alive larvae at the end of the assay.", "data": [{"compound": "O=P1(N(CCCl)CCCl)NCCCO1", "note": "(stereo not drawn) [cyclophosphamide]", "values": [{"measurement": "final body length of zebrafish larvae (average length)", "setting": "control 5.4 ± 0.2 cm", "result": "4.4 ± 0.4", "unit": "cm"}, {"measurement": "malformations", "setting": "[1]", "result": 52, "unit": "%"}, {"measurement": "mortality", "setting": "[1]", "result": 20, "unit": "%"}]}]}
